Data: patent US8513245B2, “Pharmaceutical composition for reducing the area of myocardial infarction and its use” (Changzhou Hi-Tech District Multiple Dimension Industry …, priority 2007, dated 2013)
Where a name gives a salt, the structure may show the parent alone.

Test system: rat model of AMI
Test: Protective effect in rat model of AMI (coronary ligation, NBT staining, infarcted myocardium weight)
Assay type: in vivo
Conditions: for IMW / IMW/HW (%): SD male rats, 4 h after ligation

Row | Compound | reduction of IMW/HW (%) in comparison with solvent control group (900 mg/kg levocarnitine) [%] | IMW (LC 100 mg/kg i.p.) [mg] | IMW/HW (%) (LC 100 mg/kg i.p.) | IMW (LC 300 mg/kg i.p.) [mg] | IMW/HW (%) (LC 300 mg/kg i.p.) | IMW (LC 600 mg/kg i.p.) [mg] | IMW/HW (%) (LC 600 mg/kg i.p.) | IMW (LC 900 mg/kg i.p.) [mg] | IMW/HW (%) (LC 900 mg/kg i.p.) | reduction of IMW/HW (%) in comparison with solvent control group (9 mg/kg trimetazidine, control 24.5%) [%] | IMW (TMZ 1 mg/kg i.p.) [mg] | IMW/HW (%) (TMZ 1 mg/kg i.p.) | IMW (TMZ 3 mg/kg i.p.) [mg] | IMW/HW (%) (TMZ 3 mg/kg i.p.) | IMW (TMZ 6 mg/kg i.p.) [mg] | IMW/HW (%) (TMZ 6 mg/kg i.p.) | IMW (TMZ 9 mg/kg i.p.) [mg] | IMW/HW (%) (TMZ 9 mg/kg i.p., hydrochloride) | IMW/HW (%) (TMZ 9 mg/kg i.p., listed as trimetazidine, hydrochloride)
1 | C[N+](C)(C)C[C@H](O)CC(=O)[O-] [LC, Levocarnitine] | 22.9 | 139 ± 25.9 | 16.8 ± 3.33 | 141 ± 23.0 | 17.2 ± 3.04 | 139 ± 24.0 | 16.8 ± 3.10 | 129 ± 23.8 | 15.8 ± 3.10 | – | – | – | – | – | – | – | – | – | –
2 | COc1ccc(CN2CCNCC2)c(OC)c1OC [TMZ, trimetazidine hydrochloride] | – | – | – | – | – | – | – | – | – | 34.7 | 177 ± 20.2 | 22.8 ± 3.40 | 163 ± 20.2 | 21.0 ± 2.60 | 132 ± 19.1 | 17.0 ± 3.20 | 125 ± 15.2 | 16.0 ± 2.50 | 16.0
